ChEMBL document CHEMBL1140397, “Discovery of 4-aryl-4H-chromenes as a new series of apoptosis inducers using a cell- and caspase-based high-throughput screening assay. 2. Structure-activity relationships of the 7- and 5-, 6-, 8-positions” (Bioorg Med Chem Lett, 2005)

Experiments:
Type in all cases: functional
T47D [1] = assay: Ratio of inhibition of cell proliferation activity to that of caspase activation inducing apoptosis activity in human breast cancer T47D cell line
T47D [2] = assay: Effective concentration against human breast cancer T47D cell line inducing apoptosis activity was measured by cell and caspase-based HTS assay
NCI-H1299 [3] = assay: Growth inhibitory activity against human non-small cell lung cancer H1299 cells
NCI-H1299 [4] = assay: Effective concentration against human non-small cell lung cancer H1299 cells inducing apoptosis activity was measured by using cell and caspase-based HTS assay
T47D [5] = assay: Growth inhibitory activity against human breast cancer T47D cell line
T47D [6] = assay: Effective concentration against human breast cancer T47D cell line apoptosis inducing activity was measured by using cell and caspase-based HTS assay
NCI-H1299 [7] = assay: Effective concentration against human non-small cell lung cancer H1299 cells inducing apoptosis, activity was measured by cell and caspase-based HTS assay
Tubulin beta-4B chain = Tubulin beta-4B chain (Homo sapiens, UniProt P68371); assay: Inhibitory activity against tubulin using tubulin polymerization assay
Tubulin beta-4B chain, sequence (P68371 whole entry): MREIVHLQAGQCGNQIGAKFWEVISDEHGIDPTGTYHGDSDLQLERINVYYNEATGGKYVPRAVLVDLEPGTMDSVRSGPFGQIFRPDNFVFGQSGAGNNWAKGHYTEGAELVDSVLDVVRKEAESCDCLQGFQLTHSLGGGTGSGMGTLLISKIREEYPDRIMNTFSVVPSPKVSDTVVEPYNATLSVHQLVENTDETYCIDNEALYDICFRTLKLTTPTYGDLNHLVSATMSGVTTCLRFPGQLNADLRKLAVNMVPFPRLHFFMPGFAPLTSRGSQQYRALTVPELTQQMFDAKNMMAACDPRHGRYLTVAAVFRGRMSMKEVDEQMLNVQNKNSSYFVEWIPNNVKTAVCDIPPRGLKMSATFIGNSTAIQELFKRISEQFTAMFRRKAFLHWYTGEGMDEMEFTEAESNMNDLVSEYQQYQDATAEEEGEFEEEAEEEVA

Structure (SMILES)	EC50 (NCI-H1299 [4]) [nM]	EC50 (T47D [6]) [nM]	EC50 (NCI-H1299 [7]) [nM]	also measured
COc1cc(OC)c2c(c1)OC(N)=C(C#N)C2c1cc(OC)c2c(c1)OCO2 (stereo not given)	> 10000	–	–	GI50/EC50 (T47D [1]): 1; EC50 (T47D [2]): > 10000 nM; GI50 (NCI-H1299 [3]; Homo sapiens, NCI-H1299): > 10000 nM; GI50 (T47D [5]): > 10000 nM
CCCCNc1ccc2c(c1)OC(N)=C(C#N)C2c1cccc(Cl)c1 (stereo not given)	–	120	190	–
COc1ccc2c(c1)OC(N)=C(C#N)C2c1cc(Br)c(OC)c(OC)c1 (stereo not given)	34	17	–	GI50/EC50 (T47D [1]): 0.47; GI50 (NCI-H1299 [3]; Homo sapiens, NCI-H1299): 9 nM; GI50 (T47D [5]): 8 nM
COc1ccc2c(c1)OC(N)=C(C#N)C2c1cccc(Br)c1 (stereo not given)	–	52	95	–
COc1ccc2c(c1)OC(N)=C(C#N)C2c1cccc(Cl)c1 (stereo not given)	–	80	160	–
COc1cc(OC)cc(C2C(C#N)=C(N)Oc3cc(OC)ccc32)c1 (stereo not given)	–	15	32	–
COc1ccc2c(c1)OC(N)=C(C#N)C2c1cccc([N+](=O)[O-])c1 (stereo not given)	–	89	170	–
CCNc1ccc2c(c1)OC(N)=C(C#N)C2c1cc(OC)c2c(c1)OCO2 (stereo not given)	400	–	–	EC50 (T47D [2]): 330 nM
CCCCNc1ccc2c(c1)OC(N)=C(C#N)C2c1cccc([N+](=O)[O-])c1 (stereo not given)	–	110	170	–
CCNc1cc2c(cc1C)C(c1cc(OC)c3c(c1)OCO3)C(C#N)=C(N)O2 (stereo not given)	1400	–	–	EC50 (T47D [2]): 1100 nM
COc1cc(C2C(C#N)=C(N)Oc3cc(Cl)ccc32)cc(Br)c1OC (stereo not given)	290	160	–	GI50 (NCI-H1299 [3]; Homo sapiens, NCI-H1299): 55 nM; GI50 (T47D [5]): 64 nM
CCOc1ccc2c(c1)OC(N)=C(C#N)C2c1cc(Br)c(OC)c(OC)c1 (stereo not given)	–	64	92	–
COc1cc(C2C(C#N)=C(N)Oc3cc(N4CCOCC4)ccc32)cc2c1OCO2 (stereo not given)	> 10000	–	–	EC50 (T47D [2]): > 10000 nM
COc1cc(C2C(C#N)=C(N)Oc3cc(O)ccc32)cc(Br)c1OC (stereo not given)	–	130	210	GI50/EC50 (T47D [1]): 6.1; GI50 (NCI-H1299 [3]; Homo sapiens, NCI-H1299): 190 nM; GI50 (T47D [5]): 800 nM
COc1cc(C2C(C#N)=C(N)Oc3c2ccc(N)c3C)cc2c1OCO2 (stereo not given)	770	310	–	GI50 (NCI-H1299 [3]): 860 nM; GI50 (NCI-H1299 [3]; Homo sapiens, NCI-H1299): 490 nM
N#CC1=C(N)Oc2c(ccc(N)c2N)C1c1cccc(Br)c1 (stereo not given)	–	150	230	–
COc1cc(C2C(C#N)=C(N)Oc3c2ccc(O)c3O)cc(Br)c1OC (stereo not given)	–	1700	2500	–
COc1ccc2c(c1)OC(N)=C(C#N)C2c1ccccc1 (stereo not given)	–	360	520	–
COc1ccc2c(c1)OC(N)=C(C#N)C2c1cc(OC)c(OC)c(OC)c1 (stereo not given)	–	26	57	–
COc1ccc2c(c1)OC(N)=C(C#N)C2c1cc(OC)c2c(c1)OCO2 (stereo not given)	230	–	–	GI50/EC50 (T47D [1]): 1.6; EC50 (T47D [2]): 160 nM; GI50 (NCI-H1299 [3]; Homo sapiens, NCI-H1299): 240 nM; GI50 (T47D [5]): 260 nM
CCCCNc1ccc2c(c1)OC(N)=C(C#N)C2c1cc(OC)c(OC)c(OC)c1 (stereo not given)	–	49	110	–
COc1ccc2c(c1)OC(N)=C(C#N)C2c1cccnc1 (stereo not given)	–	170	290	–
N#CC1=C(N)Oc2c(ccc(N)c2N)C1c1cccc(C#N)c1 (stereo not given)	–	390	460	–

Structure (SMILES)	EC50 (NCI-H1299 [4]) [nM]	EC50 (T47D [6]) [nM]	EC50 (NCI-H1299 [7]) [nM]	also measured
COc1cc(C2C(C#N)=C(N)Oc3cc4c(cc32)OCO4)cc2c1OCO2 (stereo not given)	270	210	–	–
COc1cc(C2C(C#N)=C(N)Oc3c2ccc(C)c3C)cc(Br)c1OC (stereo not given)	–	42	87	–
COc1cc(C2C(C#N)=C(N)Oc3c2ccc(N)c3N)cc(Br)c1O (stereo not given)	–	23	62	–
CCCCNc1ccc2c(c1)OC(N)=C(C#N)C2c1cc(OC)cc(OC)c1 (stereo not given)	–	55	120	–
COc1cc(C2C(C#N)=C(N)Oc3c2ccc(N)c3N)cc(I)c1OC (stereo not given)	–	49	100	–
COc1cc(C2C(C#N)=C(N)Oc3c2ccc(N)c3N)cc(Cl)c1OC (stereo not given)	–	24	58	–
CCN(CC)c1ccc2c(c1)OC(N)=C(C#N)C2c1cc(OC)c2c(c1)OCO2 (stereo not given)	530	–	–	EC50 (T47D [2]): 480 nM
COc1cc(C2C(C#N)=C(N)Oc3cc(O)ccc32)cc2c1OCO2 (stereo not given)	5600	–	–	GI50/EC50 (T47D [1]): 1; EC50 (T47D [2]): 5800 nM; GI50 (NCI-H1299 [3]; Homo sapiens, NCI-H1299): 5500 nM; GI50 (T47D [5]): 6080 nM
CCCCNc1ccc2c(c1)OC(N)=C(C#N)C2c1cccc(OC)c1 (stereo not given)	–	110	190	–
COc1cc(C2C(C#N)=C(N)Oc3cc(Br)ccc32)cc(Br)c1OC (stereo not given)	–	140	280	–
COc1cc(C2C(C#N)=C(N)Oc3c2ccc(N)c3N)cc(Br)c1OC (stereo not given)	–	34	81	GI50/EC50 (T47D [1]): 4.4; GI50 (NCI-H1299 [3]; Homo sapiens, NCI-H1299): 31 nM; GI50 (T47D [5]): 150 nM
COc1cc(OC)cc(C2C(C#N)=C(N)Oc3c2ccc(N)c3N)c1 (stereo not given)	–	92	190	–
COc1cc2c(cc1OC)C(c1cc(OC)c3c(c1)OCO3)C(C#N)=C(N)O2 (stereo not given)	> 10000	–	–	GI50/EC50 (T47D [1]): 1; EC50 (T47D [2]): > 10000 nM; GI50 (NCI-H1299 [3]; Homo sapiens, NCI-H1299): > 10000 nM; GI50 (T47D [5]): > 10000 nM
CCNc1ccc2c(c1)OC(N)=C(C#N)C2c1cc(Br)c(OC)c(OC)c1 (stereo not given)	27	14	–	–
COc1cc(C2C(C#N)=C(N)Oc3cc(Nc4ccccc4)ccc32)cc2c1OCO2 (stereo not given)	> 10000	–	–	EC50 (T47D [2]): > 10000 nM
COc1cccc(C2C(C#N)=C(N)Oc3cc(OC)ccc32)c1 (stereo not given)	–	52	89	–
COc1cc(C2C(C#N)=C(N)Oc3cc(N(C)C)ccc32)cc2c1OCO2 (stereo not given)	93	–	–	EC50 (T47D [2]): 730 nM
COc1cc(C2C(C#N)=C(N)Oc3cc(N)ccc32)cc2c1OCO2 (stereo not given)	1700	–	–	GI50/EC50 (T47D [1]): 2.1; EC50 (T47D [2]): 1200 nM; GI50 (NCI-H1299 [3]; Homo sapiens, NCI-H1299): 1200 nM; GI50 (T47D [5]): 2400 nM
N#CC1=C(N)Oc2c(ccc(N)c2N)C1c1cccc([N+](=O)[O-])c1 (stereo not given)	–	390	420	–
COc1cc(C2C(C#N)=C(N)Oc3c2ccc(O)c3N)cc(Br)c1OC (stereo not given)	–	61	180	GI50/EC50 (T47D [1]): 2; GI50 (NCI-H1299 [3]; Homo sapiens, NCI-H1299): 110 nM; GI50 (T47D [5]): 120 nM
COc1cncc(C2C(C#N)=C(N)Oc3cc(OC)ccc32)c1 (stereo not given)	–	47	100	GI50/EC50 (T47D [1]): 1.4; GI50 (NCI-H1299 [3]; Homo sapiens, NCI-H1299): 72 nM; GI50 (T47D [5]): 65 nM
COc1cc(C2C(C#N)=C(N)Oc3cc(N)ccc32)cc(Br)c1OC (stereo not given)	67	33	–	GI50/EC50 (T47D [1]): 2.3; IC50 (Tubulin beta-4B chain): < 500 nM; GI50 (NCI-H1299 [3]; Homo sapiens, NCI-H1299): 76 nM; GI50 (T47D [5]): 77 nM
COc1cc(C2C(C#N)=C(N)Oc3c2ccc(N)c3C)cc(Br)c1OC (stereo not given)	–	26	53	–
